Experimental data as given in publication PMC6138628, “Enhanced uptake of gH625 by blood brain barrier compared to liver in vivo: characterization of the mechanism by an in vitro model and implications for delivery” (Scientific Reports, 2018).
Like-named read-outs stand apart in the source and are kept apart here. Residues, ends and D or L forms follow the SMILES beside them.

Experiments:
[1] = outer NBD reduced with sodium dithionite
Description: A modification of the lipid mixing experiment allowed to measure peptide-induced mixing of the inner monolayer. A concentration of 0.6% mol for each of the fluorescent probes within the liposome was used. In order to completely reduce the NBD located at the outer surface of the membrane, LUVs were treated with sodium dithionite 100 mM (from a stock solution of 1 M dithionite in 1 M TRIS, pH 10.0) for approximately 1 h on ice in the dark. Excess sodium dithionite was removed by size exclusion chromatography through a Sephadex G-75 50 DNA Grade filtration column (GE Healthcare) eluted with a buffer containing 10 mM TRIS, 100 mM NaCl, and 1 mM EDTA, pH 7.4.
In the inner monolayer assay, the fluorescence from the vesicle membranes’ outer monolayer is eliminated by the addition of an aqueous reducing agent; while in the lipid mixing experiment we measured both hemi-fusion and complete fusion, in this experiment we determined only the extent of lipid mixing between the inner monolayers.

brain / BBB = assay: In vivo brain uptake, fluorescence microscopy of rat brain; parameters: species or system male Wistar rats; conditions: i.v., lower doses injected
Description: In vivo studies were performed in male Wistar rats housed under a 12 hours light-dark cycle with free access to food and water. The animals were allocated in five groups, each consisting of three rats. Three animal groups received a single i.v. administration of NBD-gH625 at a concentration of 10 µg, 20 µg, and 40 µg/100 g bw, respectively. Control group received vehicle while another group received gH-625 (40 µg/100 g bw). Both NBD-gH625 and gH625 were dissolved in phosphate-buffered saline. After 3.5 hours from the i.v. administration, the animals were anesthetized with Zoletil® (40 mg/100 g) and euthanized by decapitation. This study was carried out in strict accordance with recommendations in the European Guide for the Care and Use of Laboratory Animals. Every effort was made to minimize animal pain and suffering. All animal protocols were approved by the Committee on the Ethics of Animal Experiments of the University of Napoli Federico II (Italy) and the Italian Minister of Health. (Protocol number 2012/000180).
The ex-vivo fluorescence microscopy analysis was performed to evaluate the distribution of NBD-gH625 on both sides of the BBB. In order to evaluate if there is a linear relationship between slides fluorescence integrated density and the amount of the peptide, a calibration curve was obtained. In particular, increasing amounts of NBD-gH625 (0–30 µM) were spotted on microscope slides and images at 515 nm were acquired (See the Results section) and analysed as described below. Brains were removed from animals, sectioned sagittally in thick slices, washed in PBS, mounted on coverslips, stained with DAPI (4′–6 Diamidino-2-Phenylindole, Dilactate) (Invitrogen, Carlsbad, CA, USA) and analysed under Axioskop fluorescence microscope (Zeiss). Images, at least 10 field of view (800 × 700 μm each) for each experimental class, were acquired using an AxioCam MRc5 (Zeiss) with DAPI filter (λex 350 nm; λem 461 nm) and a fluorescein isothiocyanate filter (λex 488 nm; λem 515 nm).
To evaluate the distribution of NBD-gH625 on both sides of the BBB, we estimated the fluorescence inside the blood vessels (without discriminating between the amount present in the blood and that present in the endothelial cells) and outside the blood vessels in 10 images for each experimental class. In detail, to assess the NBD-gH625 that reached without crossing the BBB, we selected blood vessels as the region of interest (ROI) (inbound) and evaluated the fluorescence intensity; then, on the non-zero thresholded images, an inversion of selected ROI was carried out to obtain the complementary ROI to calculate the amounts of NBD-gH625 which crossed the BBB (outbound).
The morphology of blood vessels was easily identified and outlined; the images were calibrated by ImageJ Rodbard function; integrated density values were calculated within the outlines exclusively, to be considered as inside fluorescence. Then, the thresholded and outlined images, to exclude both blood vessels and background values, were used to calculate the integrated density as outside fluorescence.
To evaluate the effect of concentration on the systemic delivery of NBD-gH625, a fluorescence microscopy analysis was performed as previously reported.
Briefly, livers and brains were isolated and fixed for 24 hours in Bouin’s fixative (71% picric acid, 5% acetic acid, 24% formaldehyde) and embedded in paraffin wax (Carlo Erba, Milan, Italy). Tissue sections (10 μm of thickness) were incubated in 0.1% Sudan Black B dissolved in 70% ethanol for 20 minutes to reduce the tissues autofluorescence. The excess of Sudan Black B was removed by washing with Tris-buffered saline containing 0.02% Tween 20[30],[31]. Sections were stained with DAPI to counterstain nuclei, then mounted with a coverslip in glycerol/phosphate-buffered saline (1:1) and acquired using an AxioCam MRc5 with DAPI filter (λex 350 nm; λem 461 nm) and a fluorescein isothiocyanate filter (λex 488 nm; λem 515 nm). […]

[2] = Tryptophan quenching by acrylamide in buffer; format: physicochemical; conditions: no LUVs, peptide 4 µM, acrylamide up to 0.2 M, λex 295 nm, λem 340 nm
Description: A solution containing 4 µM of gH625 in the absence or presence of LUVs at a peptide/lipid molar ratio of 1/200, was titrated with the water-soluble quencher acrylamide (4 M mother solution). The maximal concentration of acrylamide in the samples is 0.2 M. Fluorescence was measured with λex 295 nm and λem 340 nm[43]. The data were analysed with the Stern-Volmer equation[43], F0/F = 1 + Ksv [Q], where F0 and F represent the fluorescence intensities in the absence and the presence of the quencher (Q), respectively. The Ksv is the Stern-Volmer quenching constant, and is correlated to the accessibility of the tryptophan residue to acrylamide. […] Ksv is thus determined by the amount of non-lipid-associated free peptide as well as the peptide fraction located on the surface of the bilayer.
The observed changes in the tryptophan emission upon binding to lipid vesicles indicate gH625 insertion into the hydrophobic region of the bilayers. We determined the accessibility of the tryptophan residues of membrane bound peptides towards acrylamide, a neutral, water-soluble quencher, which is unable to penetrate into the hydrophobic core of the lipid bilayer. In fact, tryptophan residues more deeply buried inside the membrane are less strongly quenched.

## CC[C@H](C)[C@H](NC(=O)[C@H](CC(C)C)NC(=O)[C@H](C)NC(=O)[C@H](CC(N)=O)NC(=O)[C@H](Cc1ccc(O)cc1)NC(=O)[C@H](Cc1c[nH]cn1)NC(=O)[C@H](C)NC(=O)[C@H](Cc1c[nH]c2ccccc12)NC(=O)[C@H](CCCNC(=N)N)NC(=O)[C@@H](NC(=O)[C@H](CC(C)C)NC(=O)[C@@H](NC(=O)[C@H](CO)NC(=O)[C@H](C)NC(=O)[C@H](CC(C)C)NC(=O)CNC(=O)[C@@H](N)Cc1c[nH]cn1)[C@@H](C)O)[C@@H](C)O)C(=O)N[C@@H](CCCNC(=N)N)C(=O)N[C@@H](C)C(=O)N[C@@H](Cc1ccccc1)C(N)=O [gH625] (H-HGLASTLTRWAHYNALIRAF-NH2)
[1]; at a P/L ratio corresponding to 100% of fusion, BBB mimicking LUVs
  Inner monolayer fusion: approximately 20%
[1]; at a peptide/lipid ratio with 100% of lipid mixing, liver mimicking LUVs
  Inner monolayer fusion: 100%
Brain / BBB
  Percentage of delivered peptide, brain compared to liver: higher percentages of delivered peptide compared to the liver
[2]
  Stern-Volmer quenching constant (Ksv): 10.21 ± 0.15 M⁻¹
